Source: PMC9649909, “Wnt-pathway inhibitors with selective activity against triple-negative breast cancer: From thienopyrimidine to quinazoline inhibitors” (Frontiers in Pharmacology, 2022)
Entries after “also recorded” stand apart in the source; their conditions may differ. Read-outs that look alike come from different tables or passages of the source.

Key:
[1] = tested on: non-cancerous breast epithelial cell line MCF10a; test: MTT survival assay MCF10a; format: cell-based; settings: for IC50: Homo sapiens, MCF-10A
Experimental: (§1) Indicated TNBC cell lines were detached and resuspended at 120,000 cells/ml and added into each well of a transparent 384-well plate in the final volume of 20 µl/well. The cells were maintained in DMEM containing 10% FBS at 37°C, 5% CO2 overnight. Next day, the medium in each well was replaced by 40 μl of the fresh one containing the indicated concentrations of compounds. In case of drug combination experiments, each compound dilution was delivered in corresponding well in 20 μl of medium. […] After incubation for 3–4 days, depending on the cell line, the medium in each well was replaced by 25 μl of 0.5 mg/ml Thiazolyl blue solution in 1xPBS following by incubation for 3 h at 37°C. Then the solution was removed and 25 μl DMSO was added into each well. Absorbance at 510 nm was measured in a Tecan Infinite M200 PRO plate reader.

[2] = tested on: HCC1395 TNBC cell line; test: MTT survival assay HCC1395; format: cell-based; settings: Homo sapiens, HCC1395; Table S2; read-out: MTT HCC-1395 IC50
Experimental: as §1

[3] = tested on: MDA-MB-468 TNBC cell line; test: MTT survival assay MDA-MB-468; format: cell-based; settings: Homo sapiens, MDA-MB-468; Table S2
Experimental: as §1

[4] = tested on: β-catenin-dependent Wnt-pathway; test: TopFlash luciferase reporter assay, Wnt3a-stimulated, HCC1395; format: cell-based; settings: Homo sapiens, stimulation with Wnt3a
Source text: The advantage of our platform lies in its ability to discriminate between inhibitors of the β-catenin-dependent Wnt signaling acting at upstream vs. downstream levels of the pathway, by stimulating the pathway at the different levels either with Wnt3a or with a GSK3β inhibitor, like CHIR99021 ([Shaw et al., 2019b]). Both stimulations abolish formation of the destruction complex, a multiprotein complex consisting of Axin, adenomatous polyposis coli (APC), glycogen synthase kinase three beta (GSK3β), and casein kinase one alpha (CK1α). Upon inactivation of the complex, β-catenin accumulates in the cytoplasm and translocates into the nucleus where it interacts with transcription factors. These downstream events are quantified by a Luciferase transcription-based readout assay (TopFlash assay).

[5] = tested on: BT-20 TNBC cell line; test: MTT survival assay BT-20; format: cell-based; settings: Homo sapiens, BT-20
Experimental: as §1

[6] = tested on: β-catenin-dependent Wnt-pathway; test: TopFlash luciferase reporter assay, CHIR99021-stimulated, HCC1395; format: cell-based; settings: for Emax / IC50: Homo sapiens, HCC1395, HCC1395, stimulation with CHIR99021 (GSK3β inhibitor); for Emax: read-out: HCC1395 TopFlash Efficacy; for IC50: read-out: HCC1395 TopFlash IC50
[7] = tested on: HCC1395 cells; test: Cytotoxicity by Renilla luciferase under CMV promoter; settings: for HCC1395 Cytotoxicity Efficacy: human
[8] = as above; settings: human
[9] = tested on: HCC1806 TNBC cell line; test: MTT survival assay HCC1806; format: cell-based; settings: for IC50: Homo sapiens, HCC1806
Experimental: as §1

[10] = tested on: MDA-MB-231 TNBC cell line; test: MTT survival assay MDA-MB-231; format: cell-based; settings: for IC50: Homo sapiens, MDA-MB-231
Experimental: as §1

[11] = tested on: TNBC cell proliferation; test: Loewe synergism with docetaxel in anti-proliferative assay (COMBENEFIT); format: cell-based; settings: Loewe model
Source text: The Wnt-pathway is implicated in chemoresistance to conventional chemotherapies and drives a poor chemotherapy response in a broad range of tumors ([O’Reilly et al., 2015]; [Martin-Orozco et al., 2019]; [Zhong and Virshup, 2020]). To assess how combination with our compounds affects the anti-proliferative capacity of docetaxel—one of the first-line treatments for TNBC ([Mandapati and Lukong, 2022]), we performed the Loewe synergism assessment over a complete dose-response range of both compounds followed by analysis in the COMBENEFIT software in Matlab (Figure 7 and Supplementary Figure S1) ([Di Veroli et al., 2016]).
as §1
The data was visualized analyzed in either GraphPad Prism nine using indicated statistical analysis or in R using gplots package ([Warnes et al., 2009]). Dataset from CCLE ([Barretina et al., 2012]) were used in the study and pathway enrichment analysis was performed by DAVID online tool ([Sherman et al., 2022]). Drug combination data was treated in COMBENEFIT software ([Di Veroli et al., 2016]). Network was built using Cytoscape with StringDB plugin ([Shannon et al., 2003]; [Szklarczyk et al., 2021]).

[12] = tested on: panel of luciferase reporters with basal activities in HCC1395 cells; test: Panel of other luciferase transcriptional reporters in HCC1395; format: cell-based; settings: HCC1395, 5 µM
Experimental: Compound 5d (IC50 = 0.6 µM, Table 2) was used as a representative to analyze the selectivity of the chemotype towards the Wnt-pathway, by profiling it against a panel of different transcriptional reporters with significant basal activities in HCC1395 cells (Figure 5). […] We thus conclude that the anti-proliferative effect of the compound is related exclusively to the suppressed Wnt signaling.

[13] = Table S2, read-out: MTT MCF10 IC50
[14] = Table S2, read-out: MTT BT-20 IC50
[15] = Table S2, read-out: MTT HCC1806 IC50
[16] = Table S2, read-out: MTT MDA-MB-231 IC50
[17] = Figure 3B heatmap, read-out: IC50, μM (MCF10)
[18] = Figure 3B heatmap, read-out: IC50, μM (HCC1806)
[19] = Figure 3B heatmap, read-out: IC50, μM (MDA-MB-231)

| SMILES | IC50 [1, 13] | MTT MCF10 Comments ([1]; Table S2) | IC50 [2] | IC50 [3] | IC50 [5, 14] | Emax [6] | IC50 [6] | IC50 [9, 15] | IC50 [10, 16] | IC50 [1, 17] | effect of co-treatment with docetaxel [11] | HCC1395 Cytotoxicity Efficacy [7] | IC50 ([8]; HCC1395 Cytotoxicity IC50) | IC50 [9, 18] | GSK HCC1395 Renilla Comments [7] | MTT HCC1806 Comments ([9]; Table S2) | MTT MDA-MB-231 Comments ([10]; Table S2) | further results |
| --- | --- | --- | --- | --- | --- | --- | --- | --- | --- | --- | --- | --- | --- | --- | --- | --- | --- | --- |
| c1ccc(CNc2ncnc3sccc23)cc1 [Compound 4a, N-benzylthieno[2,3-d]pyrimidin-4-amine] | > 10 µM | Inactive | 2.52 µM | 2.13 µM | 16.3 µM | 72% | 8.47 µM | 2.33 µM | 19.2 µM | – | – | – | – | – | – | – | – | IC50 [4]: 8.31 µM; Cytotoxicity (Renilla) in words ([7]; HCC1395): not toxic; also recorded: no cytotoxic activity; GSK HCC1395 Renilla Comments ([7]; Table S2): Non-toxic; IC50 [8]: > 50 µM; MTT MDA-MB-231 plateau ([10]; Table S2): 100 |
| COc1cc(CNc2ncnc3sccc23)ccc1F [Compound 4p, N-(4-fluoro-3-methoxybenzyl)thieno[2,3-d]pyrimidin-4-amine] | > 50 µM | – | 13.6 µM | > 50 µM | > 50 µM | 71.4 ± 11.1% | 2.59 ± 1.08 µM | > 50 µM | > 50 µM | > 10 µM | exclusively synergistic effects | 41.8% | 4.04 µM | > 10 µM | – | – | – | GSK HCC1395 Comments ([6]; Table S2): Toxic |
| COc1ccccc1C(C)Nc1ncnc2sccc12 (centres unmarked) [Compound 5a, N-(1-(2-methoxyphenyl)ethyl)thieno[2,3-d]pyrimidin-4-amine] | > 10 µM | Inactive | 0.12 µM | 0.1 µM | 4.08 µM | 46.1 ± 3.44% | 0.77 ± 0.44 µM | > 10 µM | > 10 µM | – | exclusively synergistic effects | – | > 50 µM | > 50 µM | Non-toxic | Inactive | Inactive | – |
| CC(Nc1ncnc2sccc12)c1ccc(Cl)cc1 (centres unmarked) [Compound 5d, N-(1-(4-chlorophenyl)ethyl)thieno[2,3-d]pyrimidin-4-amine] | 6.48 µM | – | 0.39 µM | 1.67 µM | 6.89 µM | 55.4 ± 24.3% | 0.6 ± 0.33 µM | 9.12 µM | > 10 µM | > 10 µM | – | 100 ± 0% | 24 ± 4.98 µM | > 50 µM | – | – | Inactive | IC50 ([5]; Figure 3B heatmap, no activity up to maximal tested concentration, read-out: IC50, μM (BT20)): > 50 µM; inhibition of other signaling pathway reporters [12]: none other signaling pathways are affected; also recorded: no inhibition |
| Clc1ccc(CCNc2ncnc3sccc23)cc1 [Compound 5m, N-(4-chlorophenethyl)thieno[2,3-d]pyrimidin-4-amine] | > 50 µM | Inactive | 3.7 µM | 8.46 µM | 6.72 µM | 82 ± 21.1% | 1.79 ± 1.45 µM | 13.1 µM | > 50 µM | > 10 µM | exclusively synergistic effects | – | > 50 µM | – | Non-toxic | – | – | IC50 [10, 19]: > 10 µM |
| COc1cccc(CNc2ncnc3ccccc23)c1 [Compound 9b, N-(3-methoxybenzyl)quinazolin-4-amine] | 40.1 µM | – | 1.05 µM | 2.62 µM | 1.1 µM | 82.6 ± 13.5% | – | > 50 µM | > 50 µM | – | – | – | > 50 µM | – | Non-toxic | Inactive | Inactive | IC50 [10, 19]: > 10 µM |
| Fc1ccc(CNc2ncnc3ccccc23)cc1 [Compound 9d, N-(4-fluoro)quinazolin-4-amine] | 12.5 µM | – | 1.15 µM | 0.8 µM | 2.92 µM | 87.1 ± 4.09% | 0.67 ± 0.13 µM | > 10 µM | > 10 µM | – | exclusively synergistic effects | – | > 50 µM | – | – | Inactive | Inactive | – |
| Cc1ccc(CNc2ncnc3ccccc23)cc1 [Compound 9f, N-(4-methyl)quinazolin-4-amine] | 9.42 µM | – | 1.07 µM | 0.83 µM | 6.08 µM | 51.6 ± 7.9% | 1.22 ± 0.33 µM | 23.4 µM | > 10 µM | – | exclusively synergistic effects | 100 ± 0% | 8.13 ± 3.8 µM | – | – | – | Inactive | – |
| Cc1ccc(C(C)Nc2ncnc3ccccc23)cc1 (centres unmarked) [Compound 9i, N-(1-(p-tolyl)ethyl)quinazolin-4-amine] | – | – | – | – | – | 54.6 ± 2.9% | 1.88 ± 0.28 µM | – | – | – | exclusively synergistic effects | 38.7 ± 12.8% | 10.3 ± 2.06 µM | – | – | – | – | – |
